The values below come from article PMC6627486, “Ipomoeassin F Binds Sec61α to Inhibit Protein Translocation” (Journal of the American Chemical Society, 2019).

For assay [1], the target named is T1, Sec61-mediated protein translocation (Canis lupus familiaris, UniProt P38377).
T1 construct: ER microsomes derived from canine pancreas; from tissue; host or cells: canine pancreas ER microsomes (nuclease-treated)
The assay can be described thus: In vitro translation and Sec61-dependent translocation into ER microsomes. In kind it is biochemical, canine. An excerpt: (§1) In Vitro Membrane Translocation Assays.
(§2) Unless otherwise stated, all cDNAs are of human origin and as previously described: CytB5OPG2,16 GypC,17 ppαF (Saccharomyces cerevisiae),16 ppcecAOPG2 (Hyalophora cecropia),16 PPL (Bos Taurus),16 Sec61βOPG216 and VCAM1.17 Ii encodes residues 17 to 232 of the short form of human HLA class II histocompatibility antigen gamma chain (Ii; P04232, isoform 2). Linear DNA templates were generated by PCR and transcribed into RNA using T7 or SP6 polymerase (Promega).
(§3) In vitro translation and translocation into ER microsomes
(§4) Translation reactions (20 μL) were performed in nuclease-treated rabbit reticulocyte lysate (Promega) in the presence of EasyTag EXPRESS 35S Protein Labelling Mix containing [35S] methionine (Perkin Elmer) (0.533 MBq; 30.15 TBq/mmol). Amino acids minus methionine (Promega) were added to 25 µM each, […]
(§5) equivalent volume of DMSO, and nuclease-treated ER microsomes (from stock with OD280 = 44/mL) were added to 6.5% (v/v). Lastly, 10% volume of in vitro transcribed mRNA (from 200-1000 ng/μL stocks) encoding the relevant precursor protein was added and translation reactions performed for 20 min at 30°C. Following incubation with 0.1 mM puromycin for 5 min at 30°C to ensure translational termination and ribosome release, membrane-associated fractions were isolated by centrifugation through an 80 μL high-salt cushion (0.75 M sucrose, 0.5 M KOAc, 5 mM Mg(OAc)2, 50 mM Hepes-KOH, pH 7.9) at 100,000 x g for 10 min at 4°C in a TLA100 rotor (Beckmann). Membrane pellets were suspended directly in SDS (sodium dodecyl sulphate) sample buffer (0.02% bromophenol blue, 62.5 mM, 4% (w/v) SDS, 10% (v/v) glycerol, pH 7.6, 1 M dithiothreitol) and, where indicated, treated with 1,000 U of Endoglycosidase H (New England Biolabs) for 30 min at 37°C prior to analysis. All samples were denatured for 10 min at 70°C prior to resolution by SDS-PAGE (12% or 16% polyacrylamide gels, 120 V, 120 min), gels were fixed (20% MeOH, 10% AcOH) for 5 min, dried (BioRad gel dryer) for 2 h at 65°C and, following exposure to a phosphorimaging plate for 24-72 h, radiolabelled products were visualised using a Typhoon FLA-7000 (GE Healthcare).
(§6) Quantitative analysis of Ii membrane insertion was performed using AIDA v.5.0 (Raytest Isotopenmeβgeräte) whereby the ratio of the signal intensity for the 2Gly/0Gly forms was used as a read-out to estimate efficiency of integration into the ER membrane. This value was then expressed relative to the matched DMSO control in order to derive the mean relative ER insertion from three independent experiments (n=3). Statistical significance of the effectiveness of Ipom-F analogues (RM one-way ANOVA) was determined using Tukey’s multiple comparisons test. IC50 value estimates were determined using non-linear regression to fit data to a curve of variable slope (four parameters) using the least squares fitting method in which the bottom and top plateaus of the curve were defined as 0% and 100% respectively. The differences between the estimated IC50 values for the three compounds analysed were statistically significant (****) according to the extra-sum-of-squares F test. Statistical analyses and IC50 estimates were performed using Prism 7.0d (GraphPad) with statistical significance given as n.s., non - significant and ****, P < 0.0001.
(§7) U2-OS secNLuc-ATZ Secretion and Cell Viability Assays

The test system of assay [2] is Sec61-mediated protein translocation. The assay is described as above. The class given is biochemical, canine.
Description: as §1, §2, §3, §4, §5, §6, §7

Assay [3] has as its system GLuc secretion in SH-SY5Y cells. The assay can be described thus: SH-SY5Y GLuc secretion assay. The class given is cell-based. Particulars: Homo sapiens, read-out: GLuc secretion inhibition EC50.
Assay [4] relates to several cancer-derived cell lines. Details: method as in PMID 19697385. Particulars: cited from earlier work.

T1 sequence (P38377 whole entry): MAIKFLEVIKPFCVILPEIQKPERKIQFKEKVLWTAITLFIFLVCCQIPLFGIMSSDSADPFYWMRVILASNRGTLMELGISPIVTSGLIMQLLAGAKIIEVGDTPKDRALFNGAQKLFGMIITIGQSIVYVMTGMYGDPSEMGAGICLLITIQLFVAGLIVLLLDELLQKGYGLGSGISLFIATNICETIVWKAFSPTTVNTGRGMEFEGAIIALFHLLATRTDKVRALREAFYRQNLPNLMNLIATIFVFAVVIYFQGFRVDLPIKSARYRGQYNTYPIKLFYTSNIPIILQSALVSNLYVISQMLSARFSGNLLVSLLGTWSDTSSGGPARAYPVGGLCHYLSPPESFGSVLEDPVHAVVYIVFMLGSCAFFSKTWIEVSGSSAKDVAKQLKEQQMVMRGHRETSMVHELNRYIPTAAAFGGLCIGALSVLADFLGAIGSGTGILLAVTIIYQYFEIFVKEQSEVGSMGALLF
T1 sequence (P60467 whole entry, further chain): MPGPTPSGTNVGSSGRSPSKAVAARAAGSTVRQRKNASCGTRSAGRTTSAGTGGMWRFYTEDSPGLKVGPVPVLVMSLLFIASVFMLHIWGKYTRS
T1 sequence (P60058 whole entry, further chain): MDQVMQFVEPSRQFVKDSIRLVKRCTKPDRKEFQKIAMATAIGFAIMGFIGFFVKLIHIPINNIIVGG

`C/C=C(\C)C(=O)O[C@@H]1[C@@H](O)[C@@H]2O[C@H]3[C@H](O[C@@H](CCCCC)CCCCCCC(=O)CCC(=O)OC[C@@H](O2)[C@H]1OC(=O)/C=C/c1ccccc1)O[C@H](C)[C@H](OC(C)=O)[C@@H]3O` [ipomoeassin F]: in assay [1], the IC50 is around 50 nM; the “membrane insertion of type I and type II integral membrane proteins (VCAM1, Ii)” value is reported as “potently inhibits”; the “translocation of short secretory protein prepro-cecropin A” value was “only a marginal impact”. Also, in assay [1] (1 μM compound), the “translocation of secretory proteins bovine preprolactin and yeast prepro-alpha-factor” value is “almost completely prevented”. Also, the “inhibition of Ii membrane insertion” value in assay [1] (type II membrane protein Ii, ER microsomes) is on record as “strongly inhibit membrane insertion”. Also, the “membrane insertion of type III integral membrane protein glycophorin C” value in assay [2] is “no effect”. Further, the “in vitro integration of tail-anchored proteins (Sec61βOPG2, Cytb5OPG2)” value in assay [2] (Sec61-independent control substrates) is “unaffected”. The EC50 in assay [3] is around 120 nM. The “IC50 values against several cancer-derived cell lines” value in assay [4] is given as “single-digit nanomolar”.

For orientation: IC50 means the point on the concentration scale where inhibition reaches its midpoint. A lower IC50 goes with higher potency. By EC50 is commonly meant the midpoint of the concentration-response curve.
